Measured values published in the Deep4Chem optical property database.
One block for each compound: values may come before it.

Assay: solvent given as SMILES

SMILES: c1ccc2c(c1)OP1(=NP(Oc3ccc4ccc5cccc6ccc3c4c56)(Oc3ccc4ccc5cccc6ccc3c4c56)=NP(Oc3ccc4ccc5cccc6ccc3c4c56)(Oc3ccc4ccc5cccc6ccc3c4c56)=N1)Oc1ccccc1-2
- emission maximum (in ClCCl): 457 nm

SMILES: CCn1c2ccccc2c2cc(-c3cc(-c4ccc5c(c4)c4ccccc4n5CC)nc(SC)n3)ccc21
- emission maximum (in C1CCOC1): 394 nm
- emission maximum (in CCOC(C)=O): 392 nm
- emission maximum (in CN(C)C=O): 421 nm
- emission maximum (in Cc1ccccc1): 387 nm
- emission maximum (in ClCCl): 411 nm

SMILES: CN(C)c1ccc(C#Cc2cc(C#Cc3ccc(N(C)C)cc3)c3ccc4c(C#Cc5ccc(C(F)(F)F)cc5)cc(C#Cc5ccc(N(C)C)cc5)c5ccc2c3c54)cc1
- emission maximum (in ClCCl): 576 nm

SMILES: Cc1ccc(C)cc1
- emission maximum (in C1CCCCC1): 292.06 nm

SMILES: CCCCCCc1cc2/c(=C(\C#N)C(=O)OC)s/c(=c3/s/c(=C(/C#N)C(=O)OC)c4cc(CCCCCC)sc34)c2s1
- emission maximum (in Cc1ccccc1): 605 nm

SMILES: N#Cc1cc2nc3c(nc2cc1C#N)C1c2ccc(N(c4ccccc4)c4ccccc4)cc2C3c2ccc(N(c3ccccc3)c3ccccc3)cc21
- emission maximum (in C1CCCCC1): 487 nm
- emission maximum (in CC#N): 492 nm
- emission maximum (in Cc1ccccc1): 552 nm
- emission maximum (in ClCCl): 497 nm

SMILES: O=c1c2ccccc2sc2ccc(-n3c4ccccc4c4ccccc43)cc12
- emission maximum (in C1CCOC1): 452.5 nm
- emission maximum (in CCCCCC): 436 nm
- emission maximum (in Cc1ccccc1): 447.5 nm
- emission maximum (in ClC(Cl)Cl): 486.5 nm
- emission maximum (in ClCCl): 483.5 nm

SMILES: CCCCN(CCCC)c1ccc(C#Cc2cc(C#Cc3ccc(C(F)(F)F)cc3)c(C#Cc3ccc(N(CCCC)CCCC)cc3)cc2C#Cc2ccc(C(F)(F)F)cc2)cc1
- emission maximum (in ClCCl): 546 nm
- emission maximum (in c1ccccc1): 506 nm

SMILES: BrCCCCCCCCCCCCOc1cc2ccc3cccc4ccc(c1)c2c34
- emission maximum (in Cc1ccccc1): 384 nm

SMILES: CC(C)(C)c1ccc2c(c1)c1cc(C(C)(C)C)cc3c1n2-c1cc(-c2ccccc2F)cc2c1B3c1cc(C(C)(C)C)cc3c4cc(C(C)(C)C)ccc4n-2c13
- emission maximum (in Cc1ccccc1): 499.76 nm

SMILES: N#Cc1cc(N2c3ccccc3Oc3ccccc32)cc(N2c3ccccc3Oc3ccccc32)c1
- emission maximum (in Cc1ccccc1): 520 nm

SMILES: F[B-]1(F)n2c(c3cccc4cccc2c43)=Nc2sc3ccccc3[n+]21
- emission maximum (in C1CCOC1): 501 nm
- emission maximum (in CC#N): 500 nm
- emission maximum (in CCCCCC): 493 nm
- emission maximum (in Cc1ccccc1): 504 nm
- emission maximum (in ClCCl): 529 nm

SMILES: CC(C)(C)c1ccc(C2=CC3=C(c4ccccc4)c4cc(-c5ccc(C(C)(C)C)cc5)c(-c5ccc(C(C)(C)C)cc5)n4[B-](F)(F)[N+]3=C2c2ccc(C(C)(C)C)cc2)cc1
- emission maximum (in C1CCCCC1): 643 nm
- emission maximum (in C1CCOC1): 649 nm
- emission maximum (in CC#N): 647 nm
- emission maximum (in Cc1ccccc1): 649 nm
- emission maximum (in ClCCl): 649 nm

SMILES: O=c1c2cc(F)c(N3CCCCC3)cc2sc2cc(N3CCCCC3)c(F)cc12
- emission maximum (in CCO): 487 nm

SMILES: CC(C)(C)c1ccc2c(c1)c1cc(C(C)(C)C)ccc1n2-c1ccc2oc3nc4oc5ccc(C(F)(F)F)cc5c4cc3c2c1
- emission maximum (in C1CCCCC1): 396 nm
- emission maximum (in C1CCOC1): 455 nm
- emission maximum (in CC#N): 513 nm
- emission maximum (in CS(C)=O): 517 nm
- emission maximum (in Cc1ccccc1): 422 nm
- emission maximum (in ClC(Cl)Cl): 364 nm

SMILES: c1ccc(N(c2ccccc2)c2ccc(-c3ccc4c(c3)C3(c5ccccc5Oc5ccccc53)c3cc(-c5ccc(N(c6ccccc6)c6ccccc6)cc5)ccc3-4)cc2)cc1
- emission maximum (in ClCCl): 457 nm
- emission maximum (in c1cc(-n2c3ccccc3c3ccccc32)cc(-n2c3ccccc3c3ccccc32)c1): 441 nm

SMILES: CN(C)CCN(Cc1c2ccccc2c(CN(CCN(C)C)c2ccc([N+](=O)[O-])cc2[N+](=O)[O-])c2ccccc12)c1ccc([N+](=O)[O-])cc1[N+](=O)[O-]
- emission maximum (in C1CCCCC1): 416 nm
- emission maximum (in C1CCOC1): 419 nm
- emission maximum (in CC#N): 389 nm
- emission maximum (in CC(C)=O): 387 nm
- emission maximum (in CCO): 388 nm
- emission maximum (in CN(C)C=O): 424 nm
- emission maximum (in CO): 389 nm
- emission maximum (in ClC(Cl)Cl): 417 nm

SMILES: Cc1ccc2c(c1)C1(c3ccccc3-c3ccccc31)c1cc(C)ccc1N2c1ccc(-c2ncccn2)cc1
- emission maximum (in Cc1ccccc1): 461 nm
- emission maximum (in O=P(c1ccccc1)(c1ccccc1)c1ccc2oc3ccc(P(=O)(c4ccccc4)c4ccccc4)cc3c2c1): 466 nm

SMILES: c1ccc2c(c1)Sc1ccccc1N2c1ccc2c(c1)C1(c3ccccc3-c3ccccc31)c1cc(N3c4ccccc4Sc4ccccc43)ccc1-2
- emission maximum (in Cc1ccccc1): 498 nm

SMILES: COc1ccc(-c2c3ccc([nH]3)c3nc(c(-c4ccc([N+](=O)[O-])cc4)c4ccc([nH]4)c4ccc([nH]4)c(-c4ccc(OC)cc4)c4ccc2o4)C=C3)cc1
- emission maximum (in C1CCOC1): 761 nm
- emission maximum (in Cc1ccccc1): 739 nm
- emission maximum (in c1ccccc1): 739 nm

SMILES: COc1cc(OC)c2c(c1)c1c(c3ccc(C(C)(C)C)cc32)=[N+]2C(=Nc3c(-c4cc(OC)c(OC)c(OC)c4)c4c5cc(OC)cc(OC)c5c5cc(C(C)(C)C)ccc5c4n3[B-]2(F)F)C=1c1cc(OC)c(OC)c(OC)c1
- emission maximum (in Cc1ccccc1): 809 nm

The remaining lines, values ahead:

- emission maximum (in CC#N): 510 nm
- emission maximum (in ClCCl): 477 nm
SMILES: Cc1cc(O)c(C(=O)/C=C/c2ccccc2O)c(=O)o1

- emission maximum (in ClCCl): 563 nm
SMILES: Clc1ccc(N2c3sc4ccccc4c3Sc3sc4ccccc4c32)cc1

- emission maximum (in ClC(Cl)Cl): 571 nm
SMILES: C[Si](C)(C)C#Cc1c2c(=O)c3ccccc3c2c(C#C[Si](C)(C)C)c2c(=O)c3ccccc3c12

- emission maximum (in C1CCOC1): 416 nm
- emission maximum (in ClC(Cl)Cl): 434 nm
SMILES: F[Si](c1c2ccccc2cc2ccccc12)(c1c2ccccc2cc2ccccc12)c1c2ccccc2cc2ccccc12

- emission maximum (in ClCCl): 536 nm
SMILES: CC1=CC(C)=[N+]2C1=C(c1c(-c3ccccn3)nc3ccccn13)c1c(C)cc(C)n1[B-]2(F)F

- emission maximum (in CC#N): 629 nm
SMILES: CC(=O)OC[C@H]1O[C@@H](OCC#Cc2ccc(C3=C4C(C)=CC(/C=C/c5ccc([N+](C)(C)C)cc5)=[N+]4[B-](F)(F)n4c(/C=C/c5ccc([N+](C)(C)C)cc5)cc(C)c43)cc2)[C@H](OC(C)=O)C(OC(C)=O)[C@@H]1OC(C)=O (stereo partly drawn)

- emission maximum (in ClCCl): 473 nm
SMILES: COC(=O)c1[nH]c(-c2ccccc2)c2nnc3c4ccccc4oc3c12

- emission maximum (in ClC(Cl)Cl): 426 nm
SMILES: COc1ccc2cc(-c3cccc(-c4cc5ccc(OC)cc5oc4=O)c3)c(=O)oc2c1

- emission maximum (in C1COCCO1): 369 nm
- emission maximum (in CC#N): 365.4 nm
- emission maximum (in CCCCCC): 369 nm
- emission maximum (in CCCCO): 370 nm
- emission maximum (in CCO): 371 nm
- emission maximum (in CCOC(C)=O): 367 nm
- emission maximum (in CO): 368 nm
- emission maximum (in ClC(Cl)Cl): 369 nm
- emission maximum (in ClCCl): 368 nm
- emission maximum (in c1ccccc1): 365 nm
SMILES: COc1cccc(-n2c(-c3ccc(F)cc3)nc(C)c2C)c1

- emission maximum (in ClCCl): 604 nm
SMILES: Cc1cc(C)c(C2=C3C=C(/C=C/C(=O)OCc4ccccc4)C=[N+]3[B-](F)(F)n3cc(/C=C/C(=O)OCc4ccccc4)cc32)c(C)c1

- emission maximum (in ClC(Cl)Cl): 682 nm
SMILES: CN1C(=CC2=C([O-])C(=Cc3oc4ccccc4[n+]3C)C2=C(C#N)C#N)Sc2ccccc21

- emission maximum (in C1CCCCC1): 360 nm
SMILES: CCC(C)(C)c1ccc(-c2ccc3c(c2)C(CCOC)(CCOC)c2cc(C(C)(C)CC)ccc2-3)cc1

- emission maximum (in C1CCOC1): 444 nm
- emission maximum (in CC#N): 450 nm
- emission maximum (in CO): 452 nm
- emission maximum (in ClCCl): 447 nm
SMILES: C(=C\c1nc2ccccc2[nH]1)/c1ccc(-c2nc3c4cccnc4c4ncccc4c3[nH]2)cc1

- emission maximum (in CCCCCC): 682 nm
- emission maximum (in ClCCl): 718 nm
SMILES: CC(C)[Si](C#Cc1c2cc3ccccc3cc2c(C#C[Si](C(C)C)(C(C)C)C(C)C)c2nc3cc4c(cc3nc12)C1c2ccccc2C4c2ccccc21)(C(C)C)C(C)C

- emission maximum (in ClCCl): 446 nm
SMILES: CC1(C)c2ccccc2-c2cc3c(cc21)c1ccccc1n3-c1ccc2ncccc2c1

- emission maximum (in C1CCOC1): 498 nm
SMILES: C(=C\c1ccccc1/C=C/c1c2ccccc2cc2ccccc12)/c1ccncc1

- emission maximum (in C1CCOC1): 502 nm
- emission maximum (in C1COCCO1): 466 nm
- emission maximum (in CC#N): 560 nm
- emission maximum (in CCO): 556 nm
- emission maximum (in ClCCl): 519 nm
SMILES: C(=C\c1ccc(N(c2ccccc2)c2ccccc2)cc1)/c1ccc(-c2cc(-c3ccccn3)nc(-c3ccccn3)c2)cc1

- emission maximum (in O): 565 nm
SMILES: C/C=C/C=C/C1=NC(=C\c2ccc([O-])cc2)/C(=O)N1C

- emission maximum (in C1CCOC1): 470 nm
- emission maximum (in CC#N): 484 nm
- emission maximum (in CCO): 501 nm
- emission maximum (in CN(C)C=O): 487 nm
- emission maximum (in CO): 508 nm
- emission maximum (in CS(C)=O): 501 nm
SMILES: CCOC(=O)c1sc(SC)c2c(=O)n(C)nnc12

- emission maximum (in C1CCCCC1): 386.34 nm
- emission maximum (in C1CCOC1): 390.22 nm
- emission maximum (in CC#N): 388.06 nm
- emission maximum (in CCCCCC): 384.62 nm
- emission maximum (in CCO): 386.99 nm
- emission maximum (in CN(C)C=O): 392.15 nm
- emission maximum (in CO): 386.56 nm
- emission maximum (in ClC(Cl)Cl): 391.46 nm
- emission maximum (in ClCCl): 391.08 nm
SMILES: COc1ccc(-c2cc3c4c(c2)CCc2cc(-c5ccc(OC)cc5)cc(c2-4)CC3)cc1

- emission maximum (in CO): 525 nm
- emission maximum (in CS(C)=O): 500 nm
- emission maximum (in ClC(Cl)Cl): 490 nm
- emission maximum (in c1ccccc1): 465 nm
SMILES: CCC1=C(C)C(=O)n2c1cc1c(C)c(CC(=O)OC)c(C)n1c2=O

- emission maximum (in ClCCl): 415 nm
SMILES: C[Si]1(C)c2cc(-c3cccs3)ccc2C=Cc2ccc(-c3cccs3)cc21

- emission maximum (in CCO): 417 nm
- emission maximum (in ClCCl): 417 nm
SMILES: c1ccc2c(-c3cncnc3)c3ccccc3c(-c3cncnc3)c2c1

- emission maximum (in ClCCl): 841 nm
SMILES: Cc1ccc(C2=[N+]3C(=Nc4c5ccccc5c(-c5ccc(C)s5)n4[B-]3(F)F)c3ccccc32)s1

- emission maximum (in ClCCl): 441 nm
SMILES: C(=C/c1ccc(N(c2ccccc2)c2ccccc2)cc1)/c1ccc(N(c2ccccc2)c2ccccc2)cc1

- emission maximum (in C1CCCCC1): 430 nm
SMILES: N#C/C(=C\c1ccccc1)c1nc2ccccc2s1

- emission maximum (in CO): 558 nm
SMILES: CCOC(=O)CCCCCn1c2ccccc2c(=O)c2cc3c(cc21)c(=O)c1cc(I)ccc1n3CCCCCC(=O)OCC

- emission maximum (in ClCCl): 551 nm
SMILES: c1ccc(C2=C(c3ccccc3)c3cccc4c3c(cc3nc5c(-c6ccccc6)ccc(-c6ccccc6)c5nc34)O2)cc1

- emission maximum (in c1ccccc1): 608 nm
SMILES: CN(C)c1ccc2ccc3oc(=O)c(-c4ccccc4)nc3c2c1

- emission maximum (in ClC(Cl)Cl): 487 nm
SMILES: FC(F)(F)c1ccc2oc3nc4oc5ccc(N(c6ccccc6)c6ccccc6)cc5c4cc3c2c1
